Results taken from PMC8578635 (Nature Communications, 2021).

What was measured:
TOP2A [1] = biological target: T1, TOP2A (Homo sapiens, UniProt P11388); test: kDNA decatenation and pBR322 relaxation assays with purified human topoisomerase II; band depletion in CHP-134 cells; type: biochemical
[2] = biological target: topoisomerase II beta (TOP2B) (Homo sapiens, UniProt Q02880); test: kDNA decatenation and pBR322 relaxation assays with purified human topoisomerase II; type: biochemical
TOP2A [3] = biological target: T1, TOP2A; test: as above
TOP2A [4] = biological target: T1, TOP2A; test: kDNA decatenation and pBR322 relaxation assays with purified human topoisomerase II; supported by band depletion and RADAR TOP2cc assays in cells; type: biochemical

T1 sequence (P11388 whole entry): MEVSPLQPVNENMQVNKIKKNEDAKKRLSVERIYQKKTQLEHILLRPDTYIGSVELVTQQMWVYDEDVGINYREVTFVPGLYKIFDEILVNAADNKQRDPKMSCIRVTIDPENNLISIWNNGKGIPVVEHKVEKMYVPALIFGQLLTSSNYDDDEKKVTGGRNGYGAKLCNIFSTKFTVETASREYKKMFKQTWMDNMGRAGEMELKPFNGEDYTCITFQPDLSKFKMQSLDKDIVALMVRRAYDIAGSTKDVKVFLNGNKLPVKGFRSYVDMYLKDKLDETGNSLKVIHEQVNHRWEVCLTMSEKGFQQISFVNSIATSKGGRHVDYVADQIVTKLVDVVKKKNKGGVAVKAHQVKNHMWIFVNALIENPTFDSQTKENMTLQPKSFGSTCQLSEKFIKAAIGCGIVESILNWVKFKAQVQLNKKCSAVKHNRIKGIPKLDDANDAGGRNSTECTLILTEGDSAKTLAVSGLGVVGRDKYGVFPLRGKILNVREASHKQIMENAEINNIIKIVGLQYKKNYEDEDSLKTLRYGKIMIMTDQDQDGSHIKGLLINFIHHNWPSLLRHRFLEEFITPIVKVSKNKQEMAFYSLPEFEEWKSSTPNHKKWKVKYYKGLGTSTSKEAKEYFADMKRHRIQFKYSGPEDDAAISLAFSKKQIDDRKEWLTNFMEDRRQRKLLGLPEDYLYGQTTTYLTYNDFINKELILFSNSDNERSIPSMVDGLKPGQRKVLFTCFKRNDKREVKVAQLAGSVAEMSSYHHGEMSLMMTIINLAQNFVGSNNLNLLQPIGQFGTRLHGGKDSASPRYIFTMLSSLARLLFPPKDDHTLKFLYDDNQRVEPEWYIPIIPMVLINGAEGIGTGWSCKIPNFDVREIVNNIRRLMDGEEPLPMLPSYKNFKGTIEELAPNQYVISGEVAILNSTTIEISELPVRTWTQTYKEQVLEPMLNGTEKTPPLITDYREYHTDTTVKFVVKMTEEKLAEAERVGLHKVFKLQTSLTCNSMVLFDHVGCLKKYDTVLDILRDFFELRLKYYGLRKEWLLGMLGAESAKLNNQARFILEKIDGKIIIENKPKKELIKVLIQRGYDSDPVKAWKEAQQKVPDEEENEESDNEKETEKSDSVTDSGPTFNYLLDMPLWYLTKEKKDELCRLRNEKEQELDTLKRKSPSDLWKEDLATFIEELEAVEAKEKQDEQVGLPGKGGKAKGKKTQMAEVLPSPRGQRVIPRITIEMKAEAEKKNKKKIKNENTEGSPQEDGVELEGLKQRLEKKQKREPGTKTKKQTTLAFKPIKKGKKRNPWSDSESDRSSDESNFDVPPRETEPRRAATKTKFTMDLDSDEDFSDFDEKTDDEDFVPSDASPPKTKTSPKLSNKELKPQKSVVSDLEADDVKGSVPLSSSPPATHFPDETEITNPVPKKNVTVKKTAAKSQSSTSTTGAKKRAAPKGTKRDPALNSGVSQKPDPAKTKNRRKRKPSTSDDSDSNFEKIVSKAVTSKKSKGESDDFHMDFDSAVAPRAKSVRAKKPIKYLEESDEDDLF
topoisomerase II beta (TOP2B), sequence (Q02880 2-1626): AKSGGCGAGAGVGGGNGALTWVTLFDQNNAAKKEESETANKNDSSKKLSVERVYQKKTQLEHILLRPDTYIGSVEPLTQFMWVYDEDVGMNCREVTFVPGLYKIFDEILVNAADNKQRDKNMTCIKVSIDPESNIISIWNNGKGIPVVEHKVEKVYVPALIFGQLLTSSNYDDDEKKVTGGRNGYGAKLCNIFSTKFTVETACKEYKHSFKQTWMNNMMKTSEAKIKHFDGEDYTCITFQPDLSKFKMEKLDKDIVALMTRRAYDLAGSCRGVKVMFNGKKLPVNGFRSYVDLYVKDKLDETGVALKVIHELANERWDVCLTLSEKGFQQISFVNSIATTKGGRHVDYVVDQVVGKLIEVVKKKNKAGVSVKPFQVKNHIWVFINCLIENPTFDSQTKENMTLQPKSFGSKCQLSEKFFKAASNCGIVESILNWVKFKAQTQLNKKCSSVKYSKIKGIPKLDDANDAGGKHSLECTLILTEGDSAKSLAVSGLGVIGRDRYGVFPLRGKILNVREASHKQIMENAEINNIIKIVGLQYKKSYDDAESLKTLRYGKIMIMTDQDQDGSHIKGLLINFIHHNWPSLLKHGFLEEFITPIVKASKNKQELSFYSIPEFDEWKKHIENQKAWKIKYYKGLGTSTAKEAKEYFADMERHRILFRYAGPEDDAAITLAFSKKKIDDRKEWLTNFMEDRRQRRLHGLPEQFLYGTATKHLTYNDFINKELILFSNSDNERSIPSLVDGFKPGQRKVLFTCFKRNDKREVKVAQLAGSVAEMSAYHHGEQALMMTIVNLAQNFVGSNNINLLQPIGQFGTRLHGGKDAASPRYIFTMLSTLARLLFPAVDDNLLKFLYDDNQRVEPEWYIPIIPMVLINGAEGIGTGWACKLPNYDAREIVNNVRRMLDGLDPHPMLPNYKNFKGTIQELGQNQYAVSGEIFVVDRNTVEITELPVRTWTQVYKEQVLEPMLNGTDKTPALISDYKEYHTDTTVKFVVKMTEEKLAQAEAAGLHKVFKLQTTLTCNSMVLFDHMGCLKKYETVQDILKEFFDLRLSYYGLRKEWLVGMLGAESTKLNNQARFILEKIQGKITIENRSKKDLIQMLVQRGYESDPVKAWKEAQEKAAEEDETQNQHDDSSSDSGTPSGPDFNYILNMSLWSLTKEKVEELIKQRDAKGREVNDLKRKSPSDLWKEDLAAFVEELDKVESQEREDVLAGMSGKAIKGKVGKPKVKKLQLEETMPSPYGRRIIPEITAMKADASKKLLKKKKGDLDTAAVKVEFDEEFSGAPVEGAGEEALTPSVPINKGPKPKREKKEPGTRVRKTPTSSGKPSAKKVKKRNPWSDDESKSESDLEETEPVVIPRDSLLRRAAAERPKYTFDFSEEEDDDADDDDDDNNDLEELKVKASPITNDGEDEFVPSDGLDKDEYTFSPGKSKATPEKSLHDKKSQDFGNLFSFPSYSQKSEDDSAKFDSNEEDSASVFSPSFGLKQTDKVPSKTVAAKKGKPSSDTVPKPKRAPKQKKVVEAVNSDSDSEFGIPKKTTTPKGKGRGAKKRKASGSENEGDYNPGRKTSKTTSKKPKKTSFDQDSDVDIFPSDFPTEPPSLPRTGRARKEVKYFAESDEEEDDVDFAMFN

COc1cccc2c1C(=O)c1c(O)c3c(c(O)c1C2=O)C[C@@](O)(C(=O)CO)C[C@@H]3O[C@H]1C[C@H](N)[C@H](O)[C@H](C)O1 [doxorubicin]
kDNA decatenation and pBR322 relaxation assays with purified human topoisomerase (TOP2A [1]): Etoposide and doxorubicin had similar activity against both paralogs.

COc1cc([C@@H]2c3cc4c(cc3[C@@H](O[C@@H]3O[C@@H]5CO[C@@H](C)O[C@H]5[C@H](O)[C@H]3O)[C@H]3COC(=O)[C@H]23)OCO4)cc(OC)c1O [etoposide]
kDNA decatenation and pBR322 relaxation assays with purified human topoisomerase [2]: Etoposide and doxorubicin had similar activity against both paralogs.
kDNA decatenation and pBR322 relaxation assays with purified human topoisomerase (TOP2A [3]): Etoposide and doxorubicin had similar activity against both paralogs.

Cc1cnc(CNC(=O)c2c(=O)c3ccc(N4CCCN(C)CC4)nc3n3c2sc2ccccc23)cn1 [CX-5461]
kDNA decatenation and pBR322 relaxation assays with purified human topoisomerase (TOP2A [4]): CX-5461 inhibited the activity of both TOP2A and TOP2B—strikingly at concentrations substantially lower than etoposide
